One test relates to SK-MEL-28 cells. Briefly: Modified MTT drug response assay, withaferin A, 72 hours. It counts as cell-based, human. Conditions: WFA 72 hours, read-out: IC50 (concentration resulting in 50% of cell death). The method, then: A modified MTT experiment was developed from CellTiter 96 NonRadioactive Cell Proliferation Assay kit (Promega). Treated leaves were cut into 1×1 cm sized pieces and fit to the bottom of an untreated 48-well plate. 0.75×0.75 cm inserts were placed in the well on the top of the leaf, cells were plated at 10,000 cells/insert and incubated at 37° C. with 5% CO2 atmosphere. After 24 hours, the inserts were removed and leaves with attached cells were cut and re-plated into non-treated 96-well plates. In parallel, cells were also directly seeded into a treated 96-well plate at a concentration of 5000 cells/well. The medium was refreshed every 72 hours. Tetrazolium component was added at day 1, 3, 5 and 7 and absorbance of formazan product was measured at 570 nm by using Epoch microplate spectrophotometer (Biotek Instruments). For the drug response assay, withaferin A (WFA) was added at concentrations ranging from 0.156 to 40 μM and incubated for 72 hours prior to the addition of the […]. […]
Microphthalmia-associated Transcription Factor (MITF) is a lineage-determining transcription factor critical for regulation of the melanocytic lineage during development and implicated as both a melanoma tumor suppressor and oncogene. […] Gene expression was then analyzed by qRT-PCR for MITF and three genes of the MITF-high expression signature (SOX10, MLANA and TYR). […]
On the technique in general: Tetrazolium dyes change colour on reduction, which living cells bring about.

The subject of test [1] is organoids of GFP-tagged glioblastoma U87 cells and RFP-tagged neural progenitor cells (NPCs). Briefly: Organoid fluorescence (cell viability) after everolimus pre-treatment and irradiation. In kind it is cell-based, human. Particulars: 10 nM everolimus for 24 hours before 2 Gy-irradiation; over one week. The method, then: (§1) Thus, the effect of a rapamycin analog, everolimus, on human cells was investigated using an in vitro organoids model. GFP-tagged glioblastoma U87 cells were cultured in presence of RFP-tagged neural progenitor cells (NPCs), differentiated from dermal fibroblasts reprogrammed to induced pluripotent stem cells, to form organoids. The organoids were exposed to 10 nM everolimus for 24 hours before 2 Gy-irradiation. […] This has been confirmed by qRT-PCR where Glast mRNA level (glioblastoma biomarker) decreases whereas SOX2 and Nestin mRNA levels (NPCs biomarkers) increase in irradiated organoids pre-treatment with everolimus (FIGS. 27A-27C).

Test [2] has as its system Glast, SOX2 and Nestin mRNA in U87/NPC organoids. The test can be described thus: qRT-PCR of biomarker mRNA in everolimus-treated irradiated organoids. It counts as cell-based, human. Particulars: irradiated organoids pre-treated with everolimus; qRT-PCR at day 10 after irradiation. The protocol:
as §1
For orientation: Quantitative PCR measures a nucleic acid by following its amplification.

For test [3], the system named is RFP-transfected dermal fibroblasts spheroids. The test can be described thus: Growth of irradiated dermal fibroblast spheroids pre-treated with everolimus. It counts as cell-based. Conditions: everolimus 24 h before 4 Gy-irradiation; growth monitored for 8 days. The method, then:
FIG. 33 RFP-transfected dermal fibroblasts spheroids have been exposed to different concentrations of everolimus 24 h before 4 Gy-irradiation and their growth monitored for 8 days.

Where two headings read alike, the source gives them in different places.

With `CC1=C(CO)C(=O)O[C@@H]([C@@H](C)[C@H]2CC[C@H]3[C@@H]4C[C@H]5O[C@]56[C@@H](O)C=CC(=O)[C@]6(C)[C@H]4CC[C@]23C)C1` [WFA, withaferin A], the IC50 is 5.2 µM in the test with SK-MEL-28 cells (SK-MEL-28 cells seeded on decellularized spinach leaf scaffold) and 1.1 µM with SK-MEL-28 cells (SK-MEL-28 cells seeded on stiff substrate (TCPS)).
For `CO[C@H]1C[C@@H]2CC[C@@H](C)[C@@](O)(O2)C(=O)C(=O)N2CCCC[C@H]2C(=O)O[C@H]([C@H](C)C[C@@H]2CC[C@@H](OCCO)[C@H](OC)C2)CC(=O)[C@H](C)/C=C(\C)[C@@H](O)[C@@H](OC)C(=O)[C@H](C)C[C@H](C)/C=C/C=C/C=C/1C` [everolimus], in test [1], the “GFP fluorescence intensity (U87 cells) compared to vehicle-treated organoids after irradiation” value is recorded as “decreases” and the “RFP fluorescence signal (NPCs) compared to vehicle-treated organoids after irradiation” value was “increases”. For the same compound, in test [2], the “Glast mRNA level (glioblastoma biomarker)” value is listed as “decreases”, the “Nestin mRNA level (NPCs biomarker)” value is recorded as “increase” and the “SOX2 mRNA level (NPCs biomarker)” value is listed as “increase”. Moreover, the “growth of irradiated spheroids compared to non-pretreated spheroids” value in test [3] is “increased”.

For the origin of these results see patent US20220236255A1, “Self-Contained Responsive Biological Systems and Methods” (Arizona Board of Regents on Behalf of the University of …, priority 2019, published 2022).
